Experimental data taken from patent US7115753B2, “Triaryl cation antibiotics from environmental DNA” (Wisconsin Alumni Research Foundation, priority 2000, dated 2006).
Like-named read-outs stand apart in the source and are kept apart here. Marks after values point to notes of the source that are not given here.

What was measured:
[1] = system: B. cereus var. mycoides 1003; format: cell-based, Bacillus cereus var. mycoides; conditions: 10 μl drop of 250 μg/ml in DMSO
Escherichia coli HS997 = assay: Zone of inhibition assay; format: cell-based; conditions: 10 μl drop of 250 μg/ml in DMSO
Pythium ultimum 1033 = assay: Zone of inhibition assay (fungal plug on plate); format: cell-based; parameters: key: (+) 2 to 13 mm zone; (+/−) 1 mm zone; (−) no zone of inhibition; conditions: DMSO-dissolved compound on plate, 23° C., 7 days
Description: (§1) Pythium ultimum (1033) and Fusarium solani f sp. glycine (90.1) were grown on ¼- strength potato dextrose agar (29) at 23° C. Plugs were cut from the fungal lawn using a #5 cork borer and placed onto the center of a fresh plate containing the DMSO-dissolved compounds. The plates were incubated 7 days, or until the organism covered the plate, at 23° C., in the dark.

[2] = system: Fusarium solani (f. sp. glycine) 90.1; assay: Zone of inhibition assay (fungal plug on plate); format: cell-based; parameters: key: (+) 2 to 13 mm zone; (+/−) 1 mm zone; (−) no zone of inhibition; conditions: DMSO-dissolved compound on plate, 23° C., 7 days
Description: as §1

Erwinia herbicola = assay: Minimum inhibitory concentration (MIC) in broth culture; format: cell-based; conditions: synthetic compound
Description: (§2) Overnight cultures were prepared as for the plate inhibition assays. Culture optical densities (O.D.) were normalized to 0.15 (150 μl path length) by performing 1:1 serial dilutions (150 μl transfer into 150 μl diluent) in a 96 well microtiter plate. Inoculum cell concentrations (colony forming units/ml) were subsequently determined by performing 1:5 serial dilution series (50 μl transfer into 200 μl diluent) in a second microtiter plate. Three dilutions were plated ([…]) by mixing 50 μl of a given dilution into 20 ml of cooled BHI/YE medium and quickly pouring into a petri plate. Test compounds, both natural and synthetic, were dissolved in DMSO (2.0 mg/ml) and diluted into BHI/YE medium to a concentration of 106 μg/ml (5.35% v/v DMSO). Samples of each of the test compounds (150 μl each) were added to 3 separate wells, each containing 150 μl of BHI/YE medium (no DMSO). […] Three plates were prepared for each test organism (n=3 […]=9 per compound, per organism). Additional wells were included in duplicate on each plate for color subtraction, +/-DMSO, and minus compound controls (n=2 […]=6 per control, per organism). Ten μl of normalized inoculum was added per well. Absorbance at 590 nm was read using a […] Victor® Microtiter plate reader; double circular mixing was performed for 10 seconds prior to reading at times 0, 30 and 60 hours. The plates were statically incubated at 28° C. when not being read. Absorbance values were imported into Microsoft Excel® and analyzed graphically.

Staphylococcus aureus = assay: as above; format: cell-based
Description: as §2

Bacillus subtilis = assay: as above; format: cell-based; conditions: synthetic compound
Description: as §2

Streptococcus pyogenes = assay: as above; format: cell-based; conditions: synthetic compound
Description: as §2

Salmonella typhimurium = assay: as above; format: cell-based; conditions: synthetic compound
Description: as §2

[3] = system: Salmonella typhimurium LT2; assay: Zone of inhibition assay; format: cell-based; conditions: 10 μl drop of 250 μg/ml in DMSO
[4] = system: Pseudomonas aeruginosa 9020; assay: Zone of inhibition assay; format: cell-based; parameters: key: (+) 2 to 13 mm zone; (+/−) 1 mm zone; (−) no zone of inhibition; conditions: 10 μl drop of 250 μg/ml in DMSO
[5] = system: Streptomyces griseus 6501; assay: Zone of inhibition assay; format: cell-based; conditions: 10 μl drop of 250 μg/ml in DMSO
[6] = system: Candida guilliermondii Y001; assay: Zone of inhibition assay; format: cell-based; conditions: 10 μl drop of 250 μg/ml in DMSO
[7] = system: Enterococcus faecalis 4025; assay: Zone of inhibition assay; format: cell-based; parameters: key: (+) 2 to 13 mm zone; (+/−) 1 mm zone; (−) no zone of inhibition; conditions: 10 μl drop of 250 μg/ml in DMSO
[8] = system: Streptococcus pyogenes 8P01; assay: Zone of inhibition assay; format: cell-based; conditions: 10 μl drop of 250 μg/ml in DMSO
Erwinia herbicola IRQ = assay: Zone of inhibition assay; format: cell-based; conditions: 10 μl drop of 250 μg/ml in DMSO
[9] = system: Staphylococcus aureus 3001; assay: Zone of inhibition assay; format: cell-based; conditions: 10 μl drop of 250 μg/ml in DMSO

c1ccc2c([C+](c3c[nH]c4ccccc34)c3c[nH]c4ccccc34)c[nH]c2c1 [Turbomycin A, turbomycin A]
Antibiotic activity (zone of inhibition) ([1]; Natural compound): + ((+) 2 to 13 mm zone)
Antibiotic activity (zone of inhibition) ([1]; Synthetic compound): + ((+) 2 to 13 mm zone)
Antibiotic activity (zone of inhibition) (Escherichia coli HS997; Natural compound): +/− ((+/−) 1 mm zone)
Antibiotic activity (zone of inhibition) (Escherichia coli HS997; Synthetic compound): +/−^b ((+/−) 1 mm zone)
Antibiotic activity (zone of inhibition) (Pythium ultimum 1033; Natural compound): −
Antibiotic activity (zone of inhibition) (Pythium ultimum 1033; Synthetic compound): −
Antibiotic activity (zone of inhibition) ([2]; Natural compound): −
Antibiotic activity (zone of inhibition) ([2]; Synthetic compound): −
minimum inhibitory concentration (MIC) (Erwinia herbicola): 6.2 µg/mL
MIC of natural product compared with synthetic compound (Staphylococcus aureus; natural product, same experiment as synthetic compound, S. aureus): same MIC
minimum inhibitory concentration (MIC) (Staphylococcus aureus; synthetic compound, broth culture, Staphylococcus aureus): 6.2 µg/mL
minimum inhibitory concentration (MIC) (Bacillus subtilis): 6.2 µg/mL
minimum inhibitory concentration (MIC) (Streptococcus pyogenes): 6.2 µg/mL
minimum inhibitory concentration (MIC) (Salmonella typhimurium): 12.5 µg/mL
Antibiotic activity (zone of inhibition) ([3]; Natural compound): + ((+) 2 to 13 mm zone)
Antibiotic activity (zone of inhibition) ([3]; Synthetic compound): + ((+) 2 to 13 mm zone)
Antibiotic activity (zone of inhibition) ([4]; Natural compound): −
Antibiotic activity (zone of inhibition) ([4]; Synthetic compound): −^c
Antibiotic activity (zone of inhibition) ([5]; Natural compound): + ((+) 2 to 13 mm zone)
Antibiotic activity (zone of inhibition) ([5]; Synthetic compound): + ((+) 2 to 13 mm zone)
Antibiotic activity (zone of inhibition) ([6]; Natural compound): +/− ((+/−) 1 mm zone)
Antibiotic activity (zone of inhibition) ([6]; Synthetic compound): +/− ((+/−) 1 mm zone)
Antibiotic activity (zone of inhibition) ([7]; Natural compound): −
Antibiotic activity (zone of inhibition) ([7]; Synthetic compound): −
Antibiotic activity (zone of inhibition) ([8]; Natural compound): + ((+) 2 to 13 mm zone)
Antibiotic activity (zone of inhibition) ([8]; Synthetic compound): + ((+) 2 to 13 mm zone)
Antibiotic activity (zone of inhibition) (Erwinia herbicola IRQ; Natural compound): + ((+) 2 to 13 mm zone)
Antibiotic activity (zone of inhibition) (Erwinia herbicola IRQ; Synthetic compound): +^a ((+) 2 to 13 mm zone)
Antibiotic activity (zone of inhibition) ([9]; Natural compound): + ((+) 2 to 13 mm zone)
Antibiotic activity (zone of inhibition) ([9]; Synthetic compound): + ((+) 2 to 13 mm zone)

c1ccc([C+](c2c[nH]c3ccccc23)c2c[nH]c3ccccc23)cc1 [Turbomycin B, turbomycin B]
Antibiotic activity (zone of inhibition) ([1]; Natural compound): + ((+) 2 to 13 mm zone)
Antibiotic activity (zone of inhibition) ([1]; Synthetic compound): + ((+) 2 to 13 mm zone)
Antibiotic activity (zone of inhibition) (Escherichia coli HS997; Natural compound): +/− ((+/−) 1 mm zone)
Antibiotic activity (zone of inhibition) (Escherichia coli HS997; Synthetic compound): +/− ((+/−) 1 mm zone)
Antibiotic activity (zone of inhibition) (Pythium ultimum 1033; Natural compound): −
Antibiotic activity (zone of inhibition) (Pythium ultimum 1033; Synthetic compound): −
Antibiotic activity (zone of inhibition) ([2]; Natural compound): −
Antibiotic activity (zone of inhibition) ([2]; Synthetic compound): −
Antibiotic activity (zone of inhibition) ([3]; Natural compound): + ((+) 2 to 13 mm zone)
Antibiotic activity (zone of inhibition) ([3]; Synthetic compound): + ((+) 2 to 13 mm zone)
Antibiotic activity (zone of inhibition) ([4]; Natural compound): −
Antibiotic activity (zone of inhibition) ([4]; Synthetic compound): −
Antibiotic activity (zone of inhibition) ([5]; Natural compound): + ((+) 2 to 13 mm zone)
Antibiotic activity (zone of inhibition) ([5]; Synthetic compound): + ((+) 2 to 13 mm zone)
Antibiotic activity (zone of inhibition) ([6]; Natural compound): +/− ((+/−) 1 mm zone)
Antibiotic activity (zone of inhibition) ([6]; Synthetic compound): +/− ((+/−) 1 mm zone)
Antibiotic activity (zone of inhibition) ([7]; Natural compound): −
Antibiotic activity (zone of inhibition) ([7]; Synthetic compound): −
Antibiotic activity (zone of inhibition) ([8]; Natural compound): + ((+) 2 to 13 mm zone)
Antibiotic activity (zone of inhibition) ([8]; Synthetic compound): + ((+) 2 to 13 mm zone)
Antibiotic activity (zone of inhibition) (Erwinia herbicola IRQ; Natural compound): + ((+) 2 to 13 mm zone)
Antibiotic activity (zone of inhibition) (Erwinia herbicola IRQ; Synthetic compound): + ((+) 2 to 13 mm zone)
Antibiotic activity (zone of inhibition) ([9]; Natural compound): + ((+) 2 to 13 mm zone)
Antibiotic activity (zone of inhibition) ([9]; Synthetic compound): + ((+) 2 to 13 mm zone)
